The record followed here is patent US8759535B2, “Substituted fused imidazole derivatives, pharmaceutical compositions, and methods of use thereof” (High Point Pharmaceuticals, LLC, priority 2010, dated 2014).

The structures appear in SMILES notation. Where a name gives a salt, the structure may show the parent alone.

One test has as its system HMOX1. The test is described as follows: HMOX1 Protein Assay (immunostaining of HO-1 in NHLF cells, GE InCell 1000). It is filed as cell-based. Particulars: Homo sapiens, fold change above DMSO treated cells, 3 μM compound (asterisk), 16 h. In short, it runs like this: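 Fold induction of HO-1 over vehicle, normally at 5 μM compound (asterisk marks 3 μM), in 0.8% DMSO medium. Normal human lung fibroblasts were treated 16 h, then paraformaldehyde-fixed, anti-HO-1/Alexa 488 stained with Hoechst, and read by high-content imaging.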
`C[C@H](CO)OCCNC(=O)c1ccc2c(c1)nc(Nc1nc3ccc(Cl)cc3s1)n2C` [Example 243, 2-(6-Chloro-benzothiazol-2-ylamino)-1-methyl-1H-benzoimidazole-5-carboxylic acid [2-((R)-2-hydroxy-1-methyl-ethoxy)-ethyl]-amide] returned a fold induction at 3 µM of 15.2. For the compound `Cn1c(Nc2nc3ccc(C(F)(F)F)cc3s2)nc2cc(C(=O)NCC(=O)N3CC[C@@H](O)C3)ccc21` [Example 402, 1-Methyl-2-(6-trifluoromethyl-benzothiazol-2-ylamino)-1H-benzoimidazole-5-carboxylic acid [2-((R)-3-hydroxy-pyrrolidin-1-yl)-2-oxo-ethyl]-amide], the fold induction at 3 µM was 24. Still for that read-out and setting: the result for `Cn1c(Nc2nc3ccc(Cl)cc3s2)nc2cc(C(=O)NCC(=O)N3CCC[C@H](O)C3)ccc21` [Example 433, 2-(6-Chloro-benzothiazol-2-ylamino)-1-methyl-1H-benzoimidazole-5-carboxylic acid [2-((S)-3-hydroxy-piperidin-1-yl)-2-oxo-ethyl]-amide] reads 29; that for `CN(C)C(=O)[C@H](CCCCN)NC(=O)c1ccc2c(c1)nc(Nc1nc3ccc(C(F)(F)F)cc3s1)n2C` [Example 369, 1-Methyl-2-(6-trifluoromethyl-benzothiazol-2-ylamino)-1H-benzoimidazole-5-carboxylic acid ((S)-5-amino-1-dimethylcarbamoyl-pentyl)-amide hydrochloride], 22.4; that for `Cn1c(Nc2nc3ccc(Cl)cc3s2)nc2cc(C(=O)NCC(=O)N3CC[C@H](O)C3)ccc21` [Example 401, 2-(6-Chloro-benzothiazol-2-ylamino)-1-methyl-1H-benzoimidazole-5-carboxylic acid [2-((S)-3-hydroxy-pyrrolidin-1-yl)-2-oxo-ethyl]-amide], 27. In turn, `CO[C@H]1CCN(C(=O)CNC(=O)c2ccc3c(c2)nc(Nc2nc4ccc(Cl)cc4s2)n3C)C1` [Example 409, 2-(6-Chloro-benzothiazol-2-ylamino)-1-methyl-1H-benzoimidazole-5-carboxylic acid [2-((S)-3-methoxy-pyrrolidin-1-yl)-2-oxo-ethyl]-amide] registered a fold induction at 3 µM of 29. As to `CCOc1ccc2nc(Nc3nc4cc(C(=O)NCC(=O)N(C)C)ccc4n3C)sc2c1` [Example 364, 2-(6-Ethoxy-benzothiazol-2-ylamino)-1-methyl-1H-benzoimidazole-5-carboxylic acid dimethylcarbamoylmethyl-amide], the fold induction at 3 µM amounted to 27.8. Same read-out and setting: the result for `CC(O)CCNC(=O)c1ccc2c(c1)nc(Nc1nc3ccc(Cl)cc3s1)n2C` (centres unmarked) [Example 215, 2-(6-Chloro-benzothiazol-2-ylamino)-1-methyl-1H-benzoimidazole-5-carboxylic acid (3-hydroxy-butyl)-amide] reads 16; that for `C[C@@H](NC(=O)c1ccc2c(c1)nc(Nc1nc3ccc(C(F)(F)F)cc3s1)n2C)C(=O)N(C)C` [Example 468, 1-Methyl-2-(6-trifluoromethyl-benzothiazol-2-ylamino)-1H-benzoimidazole-5-carboxylic acid ((R)-1-dimethylcarbamoyl-ethyl)-amide], 26.3.

Staying with this test, now noted: Homo sapiens, fold change above DMSO treated cells, 5 μM compound, 16 h.
`CSCCNC(=O)c1ccc2c(c1)nc(Nc1nc3ccc(S(C)(=O)=O)cc3s1)n2C` [Example 130, 2-(6-Methanesulfonyl-benzothiazol-2-ylamino)-1-methyl-1H-benzimidazole-5-carboxylic acid (2-methylsulfanyl-ethyl)-amide] registered a fold induction at 5 µM of 5.3. `Cn1c(Nc2nc3ccc(OC(F)(F)F)cc3s2)nc2cc(S(C)(=O)=O)ccc21` [Example 201, (5-Methanesulfonyl-1-methyl-1H-benzoimidazol-2-yl)-(6-trifluoromethoxy-benzothiazol-2-yl)-amine] registered a fold induction at 5 µM of 26.5.

Consider `Cn1c(Nc2nc3ccc(OC(F)(F)F)cc3s2)nc2cc(C(=O)NN3CCOCC3)ccc21` [Example 15, 1-Methyl-2-(6-trifluoromethoxy-benzothiazol-2-ylamino)-1H-benzoimidazole-5-carboxylic acid morpholin-4-ylamide], for which the fold induction at 5 µM worked out at 22.8. Turning to `Cn1c(Nc2nc3ccc(OC(F)(F)F)cc3s2)nc2cc(C(=O)NC3CCS(=O)(=O)C3)ccc21` (centres unmarked) [Example 121, 1-Methyl-2-(6-trifluoromethoxy-benzothiazol-2-ylamino)-1H-benzimidazole-5-carboxylic acid (1,1-dioxo-tetrahydro-1λ^6-thiophen-3-yl)-amide], the fold induction at 5 µM came to 29.6. As for `Cn1c(Nc2nc3ccc(OC(F)(F)F)cc3s2)nc2cc(C(=O)NCCOCCCF)ccc21` [Example 247, 1-Methyl-2-(6-trifluoromethoxy-benzothiazol-2-ylamino)-1H-benzoimidazole-5-carboxylic acid [2-(3-fluoro-propoxy)-ethyl]-amide], the fold induction at 5 µM turned out to be 28.3. With `CCOCCNC(=O)c1ccc2c(c1)nc(Nc1nc3ccc(Cl)cc3s1)n2C` [Example 89, 2-(6-Chloro-benzothiazol-2-ylamino)-1-methyl-1H-benzoimidazole-5-carboxylic acid (2-ethoxy-ethyl)-amide], the fold induction at 5 µM is 23.7. Regarding `Cn1c(Nc2nc3ccc(Cl)cc3s2)nc2cc(C(=O)NCC(C)(C)CO)ccc21` [Example 218, 2-(6-Chloro-benzothiazol-2-ylamino)-1-methyl-1H-benzoimidazole-5-carboxylic acid (3-hydroxy-2,2-dimethyl-propyl)-amide], the fold induction at 5 µM worked out at 39.2. `Cn1c(Nc2nc3ccc(Cl)cc3s2)nc2cc(C(=O)NCC(=O)N3CCC(CO)CC3)ccc21` [Example 442, 2-(6-Chloro-benzothiazol-2-ylamino)-1-methyl-1H-benzoimidazole-5-carboxylic acid [2-(4-hydroxymethyl-piperidin-1-yl)-2-oxo-ethyl]-amide] returned a fold induction at 5 µM of 34.9. On the same count and under the same terms, the result for `Cn1c(Nc2nc3ccc(OC(F)(F)F)cc3s2)nc2cc(C(=O)NCCOCCO)c(F)cc21` [Example 237, 6-Fluoro-1-methyl-2-(6-trifluoromethoxy-benzothiazol-2-ylamino)-1H-benzoimidazole-5-carboxylic acid [2-(2-hydroxy-ethoxy)-ethyl]-amide] reads 30.6; that for `CNC(=O)c1ccc2c(c1)nc(Nc1nc3ccc(F)cc3s1)n2C` [Example 124, 2-(6-Fluoro-benzothiazol-2-ylamino)-1-methyl-1H-benzimidazole-5-carboxylic acid methylamide], 22.9. With `COC(=O)c1ccc2c(c1)nc(Nc1nc3cc(OC(F)(F)F)ccc3s1)n2C` [Example 99, 1-Methyl-2-(5-trifluoromethoxy-benzothiazol-2-ylamino)-1H-benzoimidazole-5-carboxylic acid methyl ester], the fold induction at 5 µM turned out to be 8.5. Compound `CCN(CC)c1cc2c(cc1C(=O)OC)nc(Nc1nc3ccc(OC(F)(F)F)cc3s1)n2C` [Example 69, 6-Diethylamino-1-methyl-2-(6-trifluoromethoxy-benzothiazol-2-ylamino)-1H-benzoimidazole-5-carboxylic acid methyl ester] yielded a fold induction at 5 µM of 4.7. Same read-out and setting: the result for `CCNC(=O)c1ccc2c(c1)nc(Nc1nc3ccc(OC(F)(F)F)cc3s1)n2C` [Example 6, 1-Methyl-2-(6-trifluoromethoxy-benzothiazol-2-ylamino)-1H-benzoimidazole-5-carboxylic acid ethylamide] reads 9.45; that for `CNC(=O)CNC(=O)c1ccc2c(c1)nc(Nc1nc3ccc(OC(F)(F)F)cc3s1)n2C` [Example 139, 1-Methyl-2-(6-trifluoromethoxy-benzothiazol-2-ylamino)-1H-benzimidazole-5-carboxylic acid methylcarbamoylmethyl-amide], 18.8. `Cn1c(Nc2nc3ccc(Cl)cc3s2)nc2cc(C(=O)NCC(=O)N3CCC(O)CC3)ccc21` [Example 436, 2-(6-Chloro-benzothiazol-2-ylamino)-1-methyl-1H-benzoimidazole-5-carboxylic acid [2-(4-hydroxy-piperidin-1-yl)-2-oxo-ethyl]-amide]: the fold induction at 5 µM was 29.3.

Consider `CCOCCNC(=O)c1cnc2c(c1)nc(Nc1nc3ccc(OC(F)(F)F)cc3s1)n2C` [Example 75, 3-Methyl-2-(6-trifluoromethoxy-benzothiazol-2-ylamino)-3H-imidazo[-4,5-b]pyridine-6-carboxylic acid (2-ethoxy-ethyl)-amide], for which the fold induction at 5 µM turned out to be 29.

Compound `C[C@H](O)CNC(=O)c1ccc2c(c1)nc(Nc1nc3ccc(OC(F)(F)F)cc3s1)n2C` [Example 50, 1-Methyl-2-(6-trifluoromethoxy-benzothiazol-2-ylamino)-1H-benzoimidazole-5-carboxylic acid ((S)-2-hydroxy-propyl)-amide] yielded a fold induction at 5 µM of 11.1. `Cn1c(Nc2nc3ccc(Cl)cc3s2)nc2cc(C(=O)NCC(=O)N3CCC(O)C3)ccc21` (centres unmarked) [Example 399, 2-(6-Chloro-benzothiazol-2-ylamino)-1-methyl-1H-benzoimidazole-5-carboxylic acid [2-(3-hydroxy-pyrrolidin-1-yl)-2-oxo-ethyl]-amide] registered a fold induction at 5 µM of 20.8. `Cn1c(Nc2nc3ccc(OC(F)(F)F)cc3s2)nc2cc(C(=O)NC3CCNC3)ccc21` (centres unmarked) [Example 289, 1-Methyl-2-(6-trifluoromethoxy-benzothiazol-2-ylamino)-1H-benzoimidazole-5-carboxylic acid pyrrolidin-3-ylamide hydrochloride] had a fold induction at 5 µM of 44.6.

`COCCNC(=O)c1ccc2c(c1)nc(Nc1nc3cc(F)ccc3s1)n2C` [Example 123, 2-(5-Fluoro-benzothiazol-2-ylamino)-1-methyl-1H-benzimidazole-5-carboxylic acid (2-methoxy-ethyl)-amide] registered a fold induction at 5 µM of 12.7.
